Measured values published in ChEMBL document CHEMBL5634089, “Design, synthesis and evaluation of 2-pyrimidinylindole derivatives as anti-obesity agents by regulating lipid metabolism” (Eur J Med Chem, 2023).
≈ marks a conversion by molar mass, not a printed value.

What was measured:
[1] = system: 3T3-L1; assay: Anti-adipogenic activity in mouse 3T3-L1 cells assessed as lipid-lowering activity at 1 uM measured after 9 days by Oil Red O staining based microplate reader analysis relative to control; assay type: functional; conditions: time 9 day
[2] = MRT (0 to t) in Sprague-Dawley rat at 5 mg/kg, po administered for 24 hrs by LC-MS/MS analysis; assay type: ADME, organism-based; conditions: in vivo
[3] = AUC (0 to infinity) in Sprague-Dawley rat at 5 mg/kg, po administered for 24 hrs by LC-MS/MS analysis; assay type: ADME, organism-based; conditions: in vivo
[4] = system: 3T3-L1; assay: Anti-adipogenic activity in mouse 3T3-L1 cells assessed as lipid-lowering activity measured after 9 days by Oil Red O staining based microplate reader analysis; assay type: functional, cell-based; conditions: 3T3-L1, 216 h
[5] = Cmax in Sprague-Dawley rat at 5 mg/kg, po administered for 24 hrs by LC-MS/MS analysis; assay type: ADME, organism-based; conditions: in vivo
[6] = AUC (0 to t) in Sprague-Dawley rat at 5 mg/kg, po administered for 24 hrs by LC-MS/MS analysis; assay type: ADME, organism-based; conditions: in vivo
[7] = AUC (0 to t) in Sprague-Dawley rat at 2 mg/kg, iv administered for 24 hrs by LC-MS/MS analysis; assay type: ADME, organism-based; conditions: in vivo
[8] = Half life in Sprague-Dawley rat at 2 mg/kg, iv administered for 24 hrs by LC-MS/MS analysis; assay type: ADME, organism-based; conditions: in vivo
[9] = AUC (0 to infinity) in Sprague-Dawley rat at 2 mg/kg, iv administered for 24 hrs by LC-MS/MS analysis; assay type: ADME, organism-based; conditions: in vivo
[10] = Apparent oral clearance in Sprague-Dawley rat at 5 mg/kg, po administered for 24 hrs by LC-MS/MS analysis; assay type: ADME, organism-based; conditions: in vivo
[11] = Tmax in Sprague-Dawley rat at 5 mg/kg, po administered for 24 hrs by LC-MS/MS analysis; assay type: ADME, organism-based; conditions: in vivo
[12] = Apparent volume of distribution during terminal phase in Sprague-Dawley rat at 2 mg/kg, iv administered for 24 hrs by LC-MS/MS analysis; assay type: ADME, organism-based; conditions: in vivo
[13] = Half life in Sprague-Dawley rat at 5 mg/kg, po administered for 24 hrs by LC-MS/MS analysis; assay type: ADME, organism-based; conditions: in vivo
[14] = Oral bioavailability (0 to infinity) in Sprague-Dawley rat at 5 mg/kg administered for 24 hrs by LC-MS/MS analysis; assay type: ADME, organism-based; conditions: in vivo
[15] = MRT (0 to t) in Sprague-Dawley rat at 2 mg/kg, iv administered for 24 hrs by LC-MS/MS analysis; assay type: ADME, organism-based; conditions: in vivo
[16] = Oral bioavailability (0 to t) in Sprague-Dawley rat at 5 mg/kg administered for 24 hrs by LC-MS/MS analysis; assay type: ADME, organism-based; conditions: in vivo
[17] = Therapeutic index, ratio of IC50 for cytotoxicity against mouse 3T3-L1 cells to EC50 for anti-adipogenic in mouse 3T3-L1 cells; assay type: toxicity, cell-based; conditions: read-out: Ratio IC50/EC50
[18] = Cytotoxicity against mouse 3T3-L1 cells assessed as reduction in cell viability incubated for 24 hrs by Sulforhodamine B assay; assay type: toxicity, cell-based
[19] = Aqueous solubility of compound incubated for 24 hrs by HPLC analysis; assay type: physicochemical; conditions: aqueous medium
[20] = Apparent volume of distribution during terminal phase in Sprague-Dawley rat at 5 mg/kg, po administered for 24 hrs by LC-MS/MS analysis; assay type: ADME, organism-based; conditions: in vivo, read-out: Vz/F

Compound	Activity [1] [%]	EC50 [4] [nM]	selectivity ratio [17]	IC50 at 24 h [18] [nM]	further results
CC(=O)c1c(-c2nc(NCCN3CCCC3)cc(C(F)(F)F)n2)[nH]c2ccccc12	54.4	–	–	–	–
CC(=O)c1c(-c2nc(NCCN3CCCC3)c3ccccc3n2)[nH]c2ccccc12	99.5	45	190	8490	MRT last at 24 h [2]: 9.1 h; AUC(0-inf) [3]: 616 ng·h/mL; Cmax [5]: 63.7 ng/mL; AUC(0-t) at 24 h [6]: 574 ng·h/mL; AUC(0-t) at 24 h [7]: 603 ng·h/mL; half-life [8]: 12.4 h; AUC(0-inf) [9]: 749 ng·h/mL; CL/F [10]: 137 mL/min/kg; Tmax [11]: 1.2 h; Vz/F [12]: 47.8 L/kg; half-life [13]: 6.5 h; bioavailability [14]: 32.9%; MRT last at 24 h [15]: 14 h; bioavailability [16]: 38.1%; solubility at 24 h [19]: 8 µg/mL (≈ 20 µM); Vd/F [20]: 77.8 L/kg
CC(=O)c1c(-c2nc(NCCCN(C)C)c3ncn(C)c3n2)[nH]c2ccccc12	99.9	309	187	57700	–
COc1cnc(-c2[nH]c3ccccc3c2C(C)=O)nc1NCCN1CCCC1	48.3	–	–	–	–
CC(=O)c1c(-c2nc(NCCCN(C)C)cc(C(F)(F)F)n2)[nH]c2ccccc12	15.5	–	–	–	–
CC(=O)c1c(-c2nccc(NCCN(C)C)n2)[nH]c2ccccc12	103.9	254	112	28400	–
COc1cnc(-c2[nH]c3ccccc3c2C(C)=O)nc1NCCCN1CCCC1	49.7	–	–	–	–
CC(=O)c1c(-c2nc(NCCN3CCCC3)c3cccnc3n2)[nH]c2ccccc12	16.8	–	–	–	–
CC(=O)c1c(-c2nc(NCCN3CCCC3)c3ncn(C)c3n2)[nH]c2ccccc12	99.5	295	222	65500	–
CC(=O)c1c(-c2nc(NCCN(C)C)c3ccccc3n2)[nH]c2ccccc12	100.5	78	81	6310	–
CC(=O)c1c(-c2nc3c(c(NCCN4CCCC4)n2)CCCC3)[nH]c2ccccc12	20.5	–	–	–	–
CC(=O)c1c(-c2nc(C)cc(NCCCN(C)C)n2)[nH]c2ccccc12	99.8	225	151	33900	–
CC(=O)c1c(-c2nc(NCCCN(C)C)cc(-c3ccc(C(C)(C)C)cc3)n2)[nH]c2ccccc12	20.5	–	–	–	–
COc1cnc(-c2[nH]c3ccccc3c2C(C)=O)nc1NCCCN(C)C	54.4	–	–	–	–
CC(=O)c1c(-c2ncc(C)c(NCCCN(C)C)n2)[nH]c2ccccc12	101.8	127	254	32200	–
CC(=O)c1c(-c2nc(NCCCN(C)C)cc(-c3cccnc3)n2)[nH]c2ccccc12	48.2	–	–	–	–

Compound	Activity [1] [%]	EC50 [4] [nM]	selectivity ratio [17]	IC50 at 24 h [18] [nM]	further results
CCc1cc(NCCN2CCCC2)nc(-c2[nH]c3ccccc3c2C(C)=O)n1	58.5	–	–	–	–
CC(=O)c1c(-c2nc(O)cc(NCCCN(C)C)n2)[nH]c2ccccc12	-3.1	–	–	–	–
CC(=O)c1c(-c2ncc(C)c(NCCN3CCCC3)n2)[nH]c2ccccc12	99.8	111	212	23400	–
CC(=O)c1c(-c2nc(C)cc(NCCN3CCCC3)n2)[nH]c2ccccc12	98.3	89	202	18000	–
CC(=O)c1c(-c2nccc(NCCCN(C)C)n2)[nH]c2ccccc12	79.5	–	–	–	–
CCc1cc(NCCCN(C)C)nc(-c2[nH]c3ccccc3c2C(C)=O)n1	73.8	–	–	–	–
CC1=C(O)C(=O)C=C2C1=CC=C1[C@@]2(C)CC[C@@]2(C)[C@@H]3C[C@](C)(C(=O)O)CC[C@]3(C)CC[C@]12C [CELASTROL]	–	99	7	730	–
CC(=O)c1c(-c2nc3c(c(NCCCN(C)C)n2)CCCC3)[nH]c2ccccc12	28	–	–	–	–
CC(=O)c1c(-c2ncc(F)c(NCCN3CCCC3)n2)[nH]c2ccccc12	102.6	180	208	37400	–
CC(=O)c1c(-c2nc(C)c(C)c(NCCCN(C)C)n2)[nH]c2ccccc12	92.1	509	60	30400	–
CC(=O)c1c(-c2ncc(F)c(NCCCN(C)C)n2)[nH]c2ccccc12	58	–	–	–	–
CC(=O)c1c(-c2nc(NCCCN(C)C)cc(-c3ccccc3)n2)[nH]c2ccccc12	26.9	–	–	–	–
CC(=O)c1c(-c2nc(NCCN(C)C)c3cccnc3n2)[nH]c2ccccc12	22.4	–	–	–	–
CC(=O)c1c(-c2nc(NCCN3CCCC3)cc(-c3ccccc3)n2)[nH]c2ccccc12	5.9	–	–	–	–
CC(=O)c1c(-c2nc3c(c(NCCN(C)C)n2)CNCC3)[nH]c2ccccc12	25.1	–	–	–	–
CC(=O)c1c(-c2nc3c(c(NCCN(C)C)n2)COC3)[nH]c2ccccc12	46.9	–	–	–	–
